Results published in paper PMC8622523, “New Diterpenoids from Mesona procumbens with Antiproliferative Activities Modulate Cell Cycle Arrest and Apoptosis in Human Leukemia Cancer Cells” (Pharmaceuticals, 2021).

What was measured:
[1] = test system: HT29 (human colon carcinoma); assay: Cytotoxicity assay (Cell Counting Kit-8), HT29; assay type: cell-based; conditions: 72 h of drug treatment, means ± SD of 3 independent experiments
Protocol: (§1) A549 (human lung carcinoma), Hep-3B (human liver carcinoma), PC-3 (human prostate carcinoma), HT29 (human colon carcinoma), U937 (human monoblastic leukemia), and RAW 264.7 cells were purchased from the Food Industry Research and Development Institute (Hsinchu, Taiwan) and cultured in 10% heat-inactivated fetal bovine serum (FBS) in DMEM or RPMI-1640. Cell viability was determined by using Cell Counting Kit-8 (CCK-8; Dojindo, Rockville, MD, USA) according to the manufacturer’s instructions. All experiments were performed in triplicate.

[2] = test system: PC-3 (human prostate carcinoma); assay: Cytotoxicity assay (Cell Counting Kit-8), PC-3; assay type: cell-based; conditions: 72 h of drug treatment, means ± SD of 3 independent experiments
Protocol: as §1

[3] = test system: U937 (human monoblastic leukemia); assay: Cytotoxicity assay (Cell Counting Kit-8), U937; assay type: cell-based; conditions: 72 h of drug treatment, Cell Counting Kit-8, means ± SD of 3 independent experiments
Protocol: as §1

[4] = test system: normal mouse RAW 264.7 macrophages; assay: Cytotoxicity assay (Cell Counting Kit-8), RAW 264.7; assay type: cell-based; conditions: normal mouse macrophage cell line, 72 h of drug treatment, Cell Counting Kit-8
Protocol: as §1

[5] = test system: Hep-3B (human liver carcinoma); assay: Cytotoxicity assay (Cell Counting Kit-8), Hep-3B; assay type: cell-based; conditions: 72 h of drug treatment, means ± SD of 3 independent experiments
Protocol: as §1

[6] = test system: A549 (human lung carcinoma); assay: Cytotoxicity assay (Cell Counting Kit-8), A549; assay type: cell-based; conditions: 72 h of drug treatment, means ± SD of 3 independent experiments
Protocol: as §1

[7] = test system: HL-60 cells; design: method as in PMID 20851175; conditions: cited from earlier work
[8] = test system: KYSE-450 cells; conditions: cited from earlier work
[9] = test system: KYSE-150 cells; conditions: cited from earlier work

| Structure (SMILES) | IC50 ([1]; Homo sapiens, HT-29, 72 h) [µM] | IC50 ([2]; Homo sapiens, 72 h) [µM] | IC50 ([3]; Homo sapiens, U-937, 72 h) [µM] | IC50 ([4]; RAW264.7) [µM] | IC50 ([5]; Homo sapiens, Hep3B, 72 h) [µM] | IC50 ([6]; Homo sapiens, A549, 72 h) [µM] | also measured |
| --- | --- | --- | --- | --- | --- | --- | --- |
| CC1(C)CCCC2(C)C1CCC13CC(C(O)CC21)C(O)(CO)C3O (stereo not drawn) [Compound 5, 12α,15β,16α,17-tetrahydroxy-ent-kaurane] |  |  |  |  |  |  | IC50 [1]: > 20 µM; IC50 [2]: > 20 µM; IC50 [3]: > 20 µM; IC50 [4]: > 50 µM; IC50 [5]: > 20 µM; IC50 [6]: > 20 µM |
| CC1(C)CCCC2(C)C1CCC13C(O)C(C(=O)CC21)C(O)(CO)C3O (stereo not drawn) [Compound 6, 14β,15β,16β,17-tetrahydroxy-ent-kaur-12-one] | > 20 | > 20 | > 20 | > 50 | > 20 | > 20 |  |
| CC1(C)CCCC2(C)C1CCC13CC(C(=O)CC21)C(O)(CO)C3O (stereo not drawn) [Compound 7, 15β,16β,17-trihydroxy-ent-kaur-12-one] | > 20 | > 20 | > 20 | > 50 | > 20 | > 20 |  |
| C=C1C2CC3C4(C)CCCC(C)(C)C4CCC3(CC2O)C1O (stereo not drawn) [Compound 9, 13α,15β-trihydroxy-ent-atis-16(17)-ene] | > 20 | > 20 | > 20 | > 50 | > 20 | > 20 |  |
| C=C1C2CC3C4(C)CCCC(C)(C)C4CCC3(C1O)C(O)C2O (stereo not drawn) [Compound 10, 13α,14β,15β-trihydroxyl-ent-atis-16-ene] | > 20 | > 20 | > 20 | > 50 | > 20 | > 20 |  |
| CC1(C)CCCC2(C)C1CCC13CC=C(CO)C1OC(=O)CC23 (stereo not drawn) [Compound 11, sarcopetal-13(16)-en-17-ol-12,15-olide] | > 20 | > 20 | > 20 | > 50 | > 20 | > 20 |  |
| C=C1C(=O)[C@@]23[C@H](O)C[C@@H]4C(C)(C)C(=O)CC[C@@]4(C)[C@@H]2CC[C@@H]1[C@H]3O [glaucocalyxin A] |  |  |  |  |  |  | apoptosis induction [7]: induced apoptosis in HL-60 cells |
| C=C1C(=O)[C@@]23[C@@H]4O[C@H]5O[C@@]2(O)[C@@H](O)[C@@H]2C(C)(C)CCC[C@]52[C@@H]3CC[C@@H]14 [xerophilusin B] |  |  |  |  |  |  | apoptosis and cell cycle arrest [8]: induce apoptosis and G2/M phase cell cycle arrest; apoptosis and cell cycle arrest [9]: induce apoptosis and G2/M phase cell cycle arrest |
